Measurements as given in US6737383B1, “Herbicidal oxadiazolidines” (priority 1999, dated 2004).

What was measured:
[1] = test system: giant foxtail; test: Test B pre/postemergence giant foxtail; assay type: in vivo, Setaria faberii
Procedure, shortened: (§1)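 Herbicidal effect was estimated by eye on a ten-point control scale after plants spent twelve to sixteen days in a greenhouse following soil or foliar treatment. Foliar sprays targeted plants at one to four leaves; all doses were formulated in a non-phytotoxic solvent with surfactant.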

[2] = test system: bedstraw; test: Test B pre/postemergence bedstraw; assay type: in vivo, Galium aparine
Procedure, shortened: as §1

[3] = test system: velvetleaf; test: Test B pre/postemergence velvetleaf; assay type: in vivo, Abutilon theophrasti
Procedure, shortened: as §1

[4] = test system: morningglory; test: Test B pre/postemergence morningglory; assay type: in vivo, Ipomoea hederacea
Procedure, shortened: as §1

[5] = test system: crabgrass; test: Test B pre/postemergence crabgrass; assay type: in vivo, Digitaria sanguinalis
Procedure, shortened: as §1

[6] = test system: cocklebur; test: Test B pre/postemergence cocklebur; assay type: in vivo, Xanthium strumarium
Procedure, shortened: as §1

[7] = test system: corn; test: Test B pre/postemergence corn; assay type: in vivo, Zea mays
Procedure, shortened: as §1

[8] = test system: sugar beet; test: Test B pre/postemergence sugar beet; assay type: in vivo, Beta vulgaris
Procedure, shortened: as §1

[9] = test system: soybean; test: Test B pre/postemergence soybean; assay type: in vivo, Glycine max
Procedure, shortened: as §1

[10] = test system: purple nutsedge; test: Test B pre/postemergence purple nutsedge; assay type: in vivo, Cyperus rotundus
Procedure, shortened: as §1

[11] = test system: rape; test: Test B pre/postemergence rape; assay type: in vivo, Brassica napus
Procedure, shortened: as §1

[12] = test system: pigweed; test: Test B pre/postemergence pigweed; assay type: in vivo, Amaranthus retroflexus
Procedure, shortened: as §1

[13] = test system: surinam grass; test: Test B pre/postemergence surinam grass; assay type: in vivo, Brachiaria decumbens
Procedure, shortened: as §1

[14] = test system: blackgrass; test: Test B pre/postemergence blackgrass; assay type: in vivo, Alopecurus myosuroides
Procedure, shortened: as §1

[15] = test system: wheat; test: Test B pre/postemergence wheat; assay type: in vivo, Triticum aestivum
Procedure, shortened: as §1

[16] = test system: wild oat; test: Test B pre/postemergence wild oat; assay type: in vivo, Avena fatua
Procedure, shortened: as §1

[17] = Postemergence, Rate 62 g/ha, scale 0 to 10, 0 is no effect, 10 is complete control
[18] = Postemergence, Rate 125 g/ha, scale of 0 to 10 where 0 is no effect and 10 is complete control
[19] = Preemergence, Rate 62 g/ha, scale of 0 to 10 where 0 is no effect and 10 is complete control
[20] = Preemergence, Rate 125 g/ha, scale of 0 to 10 where 0 is no effect and 10 is complete control
[21] = Preemergence, Rate 250 g/ha, scale 0 (no effect) to 10 (complete control)
[22] = Rate 250 g/ha, Postemergence, scale 0 to 10, 0 is no effect, 10 is complete control
[23] = Rate 500 g/ha, Postemergence, scale 0 to 10, 0 is no effect, 10 is complete control
[24] = Preemergence, Rate 500 g/ha, scale of 0 to 10 where 0 is no effect and 10 is complete control
[25] = Rate 500 g/ha, Preemergence, scale 0 to 10 (0 no effect, 10 complete control)

For `CC(C)N(C(=O)n1oc(=O)n(CC(F)F)c1=O)c1ccc(F)cc1` [Compound 710], the “Plant response rating, Giant foxtail” value [1, 17] was 8, the “Giant foxtail plant response rating” value [1, 18] was 8 and the “Giant foxtail plant response rating” value [1, 19] was 10. The “Plant response rating, Giant foxtail” value [1, 20] was 10, the “Giant foxtail plant response rating” value [1, 21] was 10 and the “Giant foxtail plant response rating” value [1, 22] was 9. The “Giant foxtail plant response rating” value [1, 23] was 9, the “Bedstraw plant response rating” value [2, 18] was 1 and the “Bedstraw plant response rating” value [2, 19] was 3. For the same compound, the “Plant response rating, Bedstraw” value [2, 20] was 3, the “Bedstraw plant response rating” value [2, 21] was 5 and the “Plant response rating, Bedstraw” value [2, 24] was 7. The “Bedstraw plant response rating” value [2, 22] was 6, the “Bedstraw plant response rating” value [2, 23] was 8 and the “Plant response rating, Velvetleaf” value [3, 17] was 5. For the same compound, the “Velvetleaf plant response rating” value [3, 18] was 6, the “Velvetleaf plant response rating” value [3, 19] was 5 and the “Plant response rating, Velvetleaf” value [3, 20] was 6. For the same compound, the “Velvetleaf plant response rating” value [3, 21] was 7, the “Velvetleaf plant response rating” value [3, 22] was 6 and the “Velvetleaf plant response rating” value [3, 23] was 6. For the same compound, the “Plant response rating, Morningglory” value [4, 17] was 4, the “Morningglory plant response rating” value [4, 18] was 4 and the “Morningglory plant response rating” value [4, 19] was 0. For the same compound, the “Plant response rating, Morningglory” value [4, 20] was 0, the “Morningglory plant response rating” value [4, 21] was 0 and the “Morningglory plant response rating” value [4, 22] was 4. The “Morningglory plant response rating” value [4, 23] was 8, the “Plant response rating, Crabgrass” value [5, 17] was 8 and the “Crabgrass plant response rating” value [5, 18] was 9. The “Crabgrass plant response rating” value [5, 19] was 10, the “Plant response rating, Crabgrass” value [5, 20] was 10 and the “Crabgrass plant response rating” value [5, 21] was 10. For the same compound, the “Crabgrass plant response rating” value [5, 22] was 9, the “Crabgrass plant response rating” value [5, 23] was 9 and the “Plant response rating, Cocklebur” value [6, 17] was 0. For the same compound, the “Cocklebur plant response rating” value [6, 18] was 0, the “Cocklebur plant response rating” value [6, 19] was 0 and the “Plant response rating, Cocklebur” value [6, 20] was 0. For the same compound, the “Cocklebur plant response rating” value [6, 21] was 0, the “Plant response rating, Cocklebur” value [6, 24] was 0 and the “Cocklebur plant response rating” value [6, 22] was 0. The “Cocklebur plant response rating” value [6, 23] was 0, the “Plant response rating, Corn” value [7, 17] was 0 and the “Corn plant response rating” value [7, 18] was 0. The “Corn plant response rating” value [7, 19] was 0, the “Plant response rating, Corn” value [7, 20] was 0 and the “Corn plant response rating” value [7, 21] was 0. The “Corn plant response rating” value [7, 22] was 0, the “Corn plant response rating” value [7, 23] was 2 and the “Plant response rating, Sugarbeets” value [8, 17] was 0. For the same compound, the “Sugarbeets plant response rating” value [8, 18] was 0, the “Sugarbeets plant response rating” value [8, 19] was 6 and the “Plant response rating, Sugarbeets” value [8, 20] was 6. The “Sugarbeets plant response rating” value [8, 21] was 8, the “Sugarbeets plant response rating” value [8, 22] was 3 and the “Sugarbeets plant response rating” value [8, 23] was 6. For the same compound, the “Plant response rating, Soybean” value [9, 17] was 3, the “Soybean plant response rating” value [9, 18] was 4 and the “Soybean plant response rating” value [9, 19] was 0. For the same compound, the “Plant response rating, Soybean” value [9, 20] was 0, the “Soybean plant response rating” value [9, 21] was 3 and the “Soybean plant response rating” value [9, 22] was 4. The “Soybean plant response rating” value [9, 23] was 5, the “Plant response rating, Nutsedge” value [10, 17] was 0 and the “Nutsedge plant response rating” value [10, 18] was 0. For the same compound, the “Plant response rating, Nutsedge” value [10, 20] was 0, the “Nutsedge plant response rating” value [10, 21] was 0 and the “Nutsedge plant response rating” value [10, 22] was 0. The “Nutsedge plant response rating” value [10, 23] was 3, the “Plant response rating, Rape” value [11, 17] was 0 and the “Rape plant response rating” value [11, 18] was 0. For the same compound, the “Rape plant response rating” value [11, 19] was 7, the “Plant response rating, Rape” value [11, 20] was 8 and the “Rape plant response rating” value [11, 21] was 8. The “Rape plant response rating” value [11, 22] was 3, the “Rape plant response rating” value [11, 23] was 5 and the “Plant response rating, Redroot pigweed” value [12, 17] was 8. For the same compound, the “Redroot pigweed plant response rating” value [12, 18] was 8, the “Redroot pigweed plant response rating” value [12, 19] was 8 and the “Plant response rating, Redroot pigweed” value [12, 20] was 8. For the same compound, the “Redroot pigweed plant response rating” value [12, 21] was 10, the “Redroot pigweed plant response rating” value [12, 22] was 9 and the “Redroot pigweed plant response rating” value [12, 23] was 9. The “Plant response rating, B. signalgrass” value [13, 17] was 5, the “B. signalgrass plant response rating” value [13, 18] was 5 and the “B. signalgrass plant response rating” value [13, 19] was 8. The “Plant response rating, B. signalgrass” value [13, 20] was 8, the “B. signalgrass plant response rating” value [13, 21] was 8 and the “Plant response rating, B. signalgrass” value [13, 24] was 9. For the same compound, the “B. signalgrass plant response rating” value [13, 22] was 6, the “B. signalgrass plant response rating” value [13, 23] was 7 and the “Plant response rating, Blackgrass” value [14, 17] was 5. For the same compound, the “Blackgrass plant response rating” value [14, 18] was 6, the “Blackgrass plant response rating” value [14, 19] was 9 and the “Plant response rating, Blackgrass” value [14, 20] was 9. For the same compound, the “Blackgrass plant response rating” value [14, 21] was 9, the “Plant response rating, Blackgrass” value [14, 24] was 10 and the “Blackgrass plant response rating” value [14, 22] was 6. The “Blackgrass plant response rating” value [14, 23] was 6, the “Plant response rating, Wheat” value [15, 17] was 0 and the “Wheat plant response rating” value [15, 18] was 0. The “Wheat plant response rating” value [15, 19] was 5, the “Plant response rating, Wheat” value [15, 20] was 6 and the “Wheat plant response rating” value [15, 21] was 7. For the same compound, the “Wheat plant response rating” value [15, 22] was 4, the “Wheat plant response rating” value [15, 23] was 6 and the “Plant response rating, Wild oats” value [16, 17] was 1. The “Wild oats plant response rating” value [16, 18] was 3, the “Wild oats plant response rating” value [16, 19] was 8 and the “Plant response rating, Wild oats” value [16, 20] was 9. The “Wild oats plant response rating” value [16, 21] was 9, the “Wild oats plant response rating” value [16, 22] was 5 and the “Wild oats plant response rating” value [16, 23] was 6.

`CC(C)N(C(=O)n1oc(=O)n(C(C)C2CCC2)c1=O)c1ccc(F)cc1` (centres unmarked) [Compound 718] was tested, and the “Giant foxtail plant response rating” value [1, 19] was 10, the “Plant response rating, Giant foxtail” value [1, 20] was 10 and the “Giant foxtail plant response rating” value [1, 21] was 10. For the same compound, the “Giant foxtail plant response rating” value [1, 25] was 10, the “Bedstraw plant response rating” value [2, 19] was 0 and the “Plant response rating, Bedstraw” value [2, 20] was 0. For the same compound, the “Bedstraw plant response rating” value [2, 21] was 0, the “Bedstraw plant response rating” value [2, 25] was 0 and the “Velvetleaf plant response rating” value [3, 19] was 0. The “Plant response rating, Velvetleaf” value [3, 20] was 0, the “Velvetleaf plant response rating” value [3, 21] was 0 and the “Velvetleaf plant response rating” value [3, 25] was 0. The “Morningglory plant response rating” value [4, 19] was 0, the “Plant response rating, Morningglory” value [4, 20] was 0 and the “Morningglory plant response rating” value [4, 21] was 0. For the same compound, the “Morningglory plant response rating” value [4, 25] was 0, the “Crabgrass plant response rating” value [5, 19] was 9 and the “Plant response rating, Crabgrass” value [5, 20] was 10. For the same compound, the “Crabgrass plant response rating” value [5, 21] was 10, the “Crabgrass plant response rating” value [5, 25] was 10 and the “Cocklebur plant response rating” value [6, 19] was 0. For the same compound, the “Plant response rating, Cocklebur” value [6, 20] was 0, the “Cocklebur plant response rating” value [6, 21] was 0 and the “Cocklebur plant response rating” value [6, 25] was 0. For the same compound, the “Corn plant response rating” value [7, 19] was 0, the “Plant response rating, Corn” value [7, 20] was 0 and the “Corn plant response rating” value [7, 21] was 0. For the same compound, the “Corn plant response rating” value [7, 25] was 3, the “Sugarbeets plant response rating” value [8, 19] was 0 and the “Plant response rating, Sugarbeets” value [8, 20] was 0. For the same compound, the “Sugarbeets plant response rating” value [8, 21] was 2, the “Sugarbeets plant response rating” value [8, 25] was 2 and the “Soybean plant response rating” value [9, 19] was 0. The “Plant response rating, Soybean” value [9, 20] was 0, the “Soybean plant response rating” value [9, 21] was 0 and the “Soybean plant response rating” value [9, 25] was 0. For the same compound, the “Nutsedge plant response rating” value [10, 19] was 0, the “Nutsedge plant response rating” value [10, 21] was 0 and the “Nutsedge plant response rating” value [10, 25] was 0. For the same compound, the “Rape plant response rating” value [11, 19] was 0, the “Plant response rating, Rape” value [11, 20] was 0 and the “Rape plant response rating” value [11, 21] was 2. The “Rape plant response rating” value [11, 25] was 3, the “Redroot pigweed plant response rating” value [12, 19] was 0 and the “Plant response rating, Redroot pigweed” value [12, 20] was 4. The “Redroot pigweed plant response rating” value [12, 21] was 6, the “Redroot pigweed plant response rating” value [12, 25] was 8 and the “B. signalgrass plant response rating” value [13, 19] was 0. The “Plant response rating, B. signalgrass” value [13, 20] was 2, the “B. signalgrass plant response rating” value [13, 21] was 7 and the “B. signalgrass plant response rating” value [13, 25] was 9. The “Blackgrass plant response rating” value [14, 19] was 8, the “Plant response rating, Blackgrass” value [14, 20] was 9 and the “Blackgrass plant response rating” value [14, 21] was 9. For the same compound, the “Blackgrass plant response rating” value [14, 25] was 10, the “Wheat plant response rating” value [15, 19] was 0 and the “Plant response rating, Wheat” value [15, 20] was 0. The “Wheat plant response rating” value [15, 21] was 0, the “Wheat plant response rating” value [15, 25] was 2 and the “Wild oats plant response rating” value [16, 19] was 2. For the same compound, the “Plant response rating, Wild oats” value [16, 20] was 2 and the “Wild oats plant response rating” value [16, 25] was 8.
